According to patent US20220372014A1, “NEUROPROTECTIVE COMPOUNDS AND METHODS OF USE THEREOF” (The Johns Hopkins University, priority 2019, published 2022):

What was measured:
MIF = biological target: T1, MIF (Homo sapiens, UniProt P14174); experiment: Nuclease assay of Example 3 (MIF inhibitory activity, Table 4); type: biochemical; parameters: (%) inhibition of MIF nuclease activity: concentration or dose not given beside the values; settings: for (%) inhibition of MIF nuclease activity: nuclease assay of Example 3
T1 sequence (P14174 1-115): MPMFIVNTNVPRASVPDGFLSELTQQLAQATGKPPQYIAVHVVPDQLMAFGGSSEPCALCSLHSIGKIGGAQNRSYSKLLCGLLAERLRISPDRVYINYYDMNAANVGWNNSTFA
Experimental: A rapafucin library was synthesized as described in WO2017/136708 and Guo et al. (2018) Nat. Chem. 11:254-63. The hybrid macrocyclic library consisted of 45,000 compounds in pools of 15 individual compounds. The library compounds were screened for MIF inhibitory activity using a nuclease assay as detailed in FIG. 1 and below.
Nuclease assay: Human genomic DNA (200 ng/reaction, Promega), pcDNA (200 ng/reaction) or PS^30 and its related and non-related substrates (1 μM) was incubated with wild type MIF or its variants at a final concentration of 0.25-8 μM as indicated in 10 mM Tris-HCl buffer (pH 7.0) containing 10 mM MgCl2 and 1 mM DTT or specific buffer as indicated, for 1 h (with pcDNA and small DNA substrates) or 4 h (with human genomic DNA) at 37° C. The reaction was terminated with loading buffer containing 10 mM EDTA and incubation on ice. The human genomic DNA samples were immediately separated on a 1.2% pulse field certified agarose in 0.5×TBE buffer with initial switch time of 1.5 s and a final switch time of 3.5 s for 12 h at 6 V/cm. pcDNA samples were determined by 1% agarose gel. Small DNA substrates were separated on 15% or 25% TBE-urea polyacrylamide (PAGE) gel or 20% TBE PAGE gel. Then gel was stained with 0.5 μg/ml Ethidium Bromide (EtBr) followed by electrophoretic transfer to nylon membrane. Then, Biotin-labeled DNA is further detected by chemiluminescence using Chemiluminescent Nucleic Acid Detection Module (Thermo Scientific).
Structure-activity relationship (SAR) analysis was then conducted on the compounds identified as having MIF inhibitory activity. Compounds having the structure of Formula (I) were then synthesized as shown in Example 1 and tested for MIF inhibitory activity using the nuclease assay described herein and neuronal protection via a cell death assay as detailed below.

[1] = system: HeLa cells or neuronal cells; experiment: Cell death assay of Example 3 (MNNG, alamarBlue; protection against parthanatos, Table 4); type: cell-based; settings: 1 μM test compound; for (%) inhibition of cell death: MNNG-induced cell death, alamarBlue
Experimental: Cell death assay: 200 μl of cells (HeLa cells or neuronal cells) culture (1×10^4 cells/well) were plated into the wells of a sterile 96-well cell culture plate. The cells were incubated for 18 hours at 37° C. The medium was removed and changed with 100 μl/well of 1 μM test compound. Incubate for 1 hours at 37° C. Ten μl of 500 μM MNNG (N-Methyl-N′-nitro-N-nitrosoguanidine) was added to each well. The medium was aspirated well and incubated for 15 min at 37° C. The cells were washed with the fresh medium. The medium was changed with 1 μM of test compound and incubated for 18 hours at 37° C. 10 μl/well of alamarBlue reagent was added directly to the well and incubated for 1 to 4 hours at 37° C. Fluorescence was measured using a fluorescence excitation wavelength of 560 nm and emission at 590 nm. The percentage of cell death was determined as the ratio of live to dead cells compared with the percentage of cell death in control wells to account for cell death attributed to mechanical stimulation of the cultures.

| SMILES | (%) inhibition of MIF nuclease activity (MIF) | MIF nuclease activity (MIF) | (%) inhibition of cell death [1] | protection against parthanatos (cell death) [1] |
| --- | --- | --- | --- | --- |
| COc1ccc(CC[C@H]2OC(=O)[C@@H]3CCCCN3C(=O)C(=O)C(C)(C)COC(=O)C=CCCN(C)C(=O)[C@H](Cc3ccccc3)NC(=O)[C@H](COC(C)(C)C)N(C)C(=O)[C@@H](CC(C)C)NC(=O)CN(C)C(=O)COc3cccc2c3)cc1OC [compound 8] | 31.3% |  | 61.6% |  |
| COc1ccc(CC[C@H]2OC(=O)[C@@H]3CCCCN3C(=O)C(=O)C(C)(C)COC(=O)C=CCCN(C)C(=O)[C@@H](CC(C)C)NC(=O)[C@H](COC(C)(C)C)N(C)C(=O)C(c3ccccc3)NC(=O)CN(C)C(=O)COc3cccc2c3)cc1OC (stereo partly shown) [compound 37] | 18.0% |  | 59.6% |  |
| COc1ccc(CC[C@H]2OC(=O)[C@@H]3CCCCN3C(=O)C(=O)C(C)(C)COC(=O)C=CCCN(C)C(=O)[C@H](Cc3ccc4ccccc4c3)NC(=O)[C@H](COC(C)(C)C)N(C)C(=O)[C@H](Cc3ccc4ccccc4c3)NC(=O)[C@H](C)N(C)C(=O)COc3cccc2c3)cc1OC [compound 28] | 66.6% |  | 69.6% |  |
| COCC[C@@H]1NC(=O)[C@H](COC(C)(C)C)N(C)C(=O)[C@@H](CC(C)C)NC(=O)CN(C)C(=O)COc2cccc(c2)[C@@H](CCc2ccc(OC)c(OC)c2)OC(=O)[C@@H]2CCCCN2C(=O)C(=O)C(C)(C)COC(=O)C=CCCN(C)C1=O [compound 5] | 10.7% |  | 41.7% |  |
| COc1ccc(CC[C@H]2OC(=O)[C@@H]3CCCCN3C(=O)C(=O)C(C)(C)COC(=O)C=CCCN(C)C(=O)[C@@H](C)NC(=O)[C@H](COC(C)(C)C)N(C)C(=O)[C@H](Cc3ccc4ccccc4c3)NC(=O)[C@H](C)N(C)C(=O)COc3cccc2c3)cc1OC [compound 18] | 65.0% |  | 78.4% |  |
| COc1ccc(CC[C@H]2OC(=O)[C@@H]3CCCCN3C(=O)C(=O)C(C)(C)COC(=O)C=CCCN(C)C(=O)[C@@H]3CCCN3C(=O)[C@H](COC(C)(C)C)N(C)C(=O)[C@@H](c3ccccc3)NC(=O)[C@H](C)N(C)C(=O)COc3cc(F)cc2c3)cc1OC (racemic) [compound 153] | 71.7% |  | 93.2% |  |
| COc1ccc(CC[C@H]2OC(=O)[C@@H]3CCCCN3C(=O)C(=O)C(C)(C)COC(=O)C=CCCN(C)C(=O)[C@@H]3CCCN3C(=O)[C@H](COC(C)(C)C)N(C)C(=O)[C@H](c3ccccc3)NC(=O)[C@H](C)N(C)C(=O)COc3cc(F)cc2c3)cc1OC (racemic) [compound 154] | 38.2% |  | 46.2% |  |
| COc1ccc(CC[C@H]2OC(=O)[C@@H]3CCCCN3C(=O)C(=O)C(C)(C)COC(=O)C=CCCN(C)C(=O)[C@@H](Cc3ccccc3)NC(=O)[C@H](COC(C)(C)C)N(C)C(=O)C(c3ccccc3)NC(=O)[C@H](C)N(C)C(=O)COc3cccc2c3)cc1OC (stereo partly shown) [compound 54] | 15.9% |  | 56.0% |  |
| COc1ccc(CC[C@H]2OC(=O)[C@@H]3CCCCN3C(=O)C(=O)C(C)(C)COC(=O)C=CCCN(C)C(=O)[C@@H]3CCCN3C(=O)[C@H](COC(=O)CCC(=O)OCCOCCOCCOCCNC(=O)CCCCC3SC[C@H]4NC(=O)N[C@@H]34)N(C)C(=O)C(c3ccccc3)NC(=O)[C@H](C)N(C)C(=O)COc3cccc2c3)cc1OC (stereo partly shown) [compound 130] |  |  | 48.2% |  |

The next lines start with results.

| (%) inhibition of MIF nuclease activity (MIF) | MIF nuclease activity (MIF) | SMILES | (%) inhibition of cell death [1] | protection against parthanatos (cell death) [1] |
| --- | --- | --- | --- | --- |
| −4.7% |  | COc1cc(O)c(CC[C@H]2OC(=O)[C@@H]3CCCCN3C(=O)C(=O)C(C)(C)COC(=O)C=CCCN(C)C(=O)[C@@H]3CCCN3C(=O)[C@H](COC(C)(C)C)N(C)C(=O)C(c3ccccc3)NC(=O)[C@H](C)N(C)C(=O)COc3cccc2c3)cc1OC (stereo partly shown) [compound 116] | 50.9% |  |
| 67.0% |  | COc1ccc(CC[C@H]2OC(=O)[C@@H]3CCCCN3C(=O)C(=O)C(C)(C)COC(=O)C=CCCN(C)C(=O)[C@H](CC(C)C)NC(=O)[C@H](Cc3ccccc3)N(C)C(=O)[C@@H](C)NC(=O)CN(C)C(=O)COc3cccc2c3)cc1OC [compound 66] | 71.4% |  |
| 44.0% |  | COc1ccc(CC[C@H]2OC(=O)[C@@H]3CCCCN3C(=O)C(=O)C(C)(C)COC(=O)C=CCCN(C)C(=O)[C@H](Cc3ccccc3)NC(=O)[C@H](Cc3ccccc3)N(C)C(=O)[C@@H](C)NC(=O)CN(C)C(=O)COc3cccc2c3)cc1OC [compound 68] | 58.0% |  |
| 18.4% |  | COc1ccc(CC[C@H]2OC(=O)[C@@H]3CCCCN3C(=O)C(=O)C(C)(C)COC(=O)C=CCCN(C)C(=O)[C@H](CC3CCCCC3)NC(=O)[C@H](COC(C)(C)C)N(C)C(=O)C(c3ccccc3)NC(=O)[C@H](C)N(C)C(=O)COc3cccc2c3)cc1OC (stereo partly shown) [compound 57] | 59.3% |  |
| 21.2% |  | COc1ccc(CC[C@H]2OC(=O)[C@@H]3CCCCN3C(=O)C(=O)C(C)(C)COC(=O)C=CCCN(C)C(=O)[C@H](CC3CCCCC3)NC(=O)[C@H](Cc3ccccc3)N(C)C(=O)[C@@H](C)NC(=O)CN(C)C(=O)COc3cccc2c3)cc1OC [compound 72] | 55.3% |  |
| 21.3% |  | COc1ccc(CC[C@H]2OC(=O)[C@@H]3CCCCN3C(=O)C(=O)C(C)(C)COC(=O)C=CCCN(C)C(=O)[C@H](Cc3ccc4ccccc4c3)NC(=O)[C@H](C(C)C)N(C)C(=O)[C@@H](Cc3ccccc3)NC(=O)[C@H](CC(C)C)N(C)C(=O)CCC(=O)Nc3cccc2c3)cc1OC [compound 88] | 52.7% |  |
| 9.0% | do not inhibit MIF nuclease activity | COc1ccc(CC[C@H]2OC(=O)[C@@H]3CCCCN3C(=O)C(=O)C(C)(C)COC(=O)C=CCCN(C)C(=O)[C@@H]3CCCCN3C(=O)[C@H](COC(C)(C)C)N(C)C(=O)C(c3ccccc3)NC(=O)[C@H](C)N(C)C(=O)COc3cccc2c3)cc1OC (stereo partly shown) [compound 92] | 72.1% | protect against parthanatos |
| −4.7% |  | COc1ccc(CC[C@H]2OC(=O)[C@@H]3CCCCN3C(=O)C(=O)C(C)(C)COC(=O)C=CCCN(C)C(=O)[C@@H]3CCCN3C(=O)[C@H](COC(C)(C)C)N(C)C(=O)C(c3ccccc3)NC(=O)[C@H](C(C)CC(C)(C)C)N(C)C(=O)COc3cccc2c3)cc1OC (stereo partly shown) [compound 147] | 46.2% |  |
| 13.3% |  | COc1ccc(CC[C@H]2OC(=O)[C@@H]3CCCCN3C(=O)C(=O)C(C)(C)COC(=O)C=CCCN(C)C(=O)[C@H](C(C)C)NC(=O)[C@H](COC(C)(C)C)N(C)C(=O)C(c3ccccc3)NC(=O)[C@H](C)N(C)C(=O)COc3cccc2c3)cc1OC (stereo partly shown) [compound 59] | 58.9% |  |
| 12.0% |  | COc1ccc(CC[C@H]2OC(=O)[C@@H]3CCCCN3C(=O)C(=O)C(C)(C)COC(=O)C=CCCN(C)C(=O)[C@H](C)N(C)C(=O)[C@H](COC(C)(C)C)N(C)C(=O)C(c3ccccc3)NC(=O)[C@H](C)N(C)C(=O)COc3cccc2c3)cc1OC (stereo partly shown) [compound 94] | 12.1% |  |
| 10.7% |  | COc1ccc(CC[C@H]2OC(=O)[C@@H]3CCCCN3C(=O)C(=O)C(C)(C)COC(=O)C=CCCN(C)C(=O)[C@H](Cc3ccc(F)cc3)NC(=O)[C@H](C(C)C)N(C)C(=O)[C@@H](Cc3ccccc3)NC(=O)[C@H](CC(C)C)N(C)C(=O)CCC(=O)Nc3cccc2c3)cc1OC [compound 85] | 49.4% |  |
| 9.3% |  | COc1cc(F)c(CC[C@H]2OC(=O)[C@@H]3CCCCN3C(=O)C(=O)C(C)(C)COC(=O)C=CCCN(C)C(=O)[C@@H]3CCCN3C(=O)[C@H](COC(C)(C)C)N(C)C(=O)C(c3ccccc3)NC(=O)[C@H](C)N(C)C(=O)COc3cccc2c3)cc1OC (stereo partly shown) [compound 109] | 52.9% |  |
